Reference: BindingDB's records for PubMed 9223586 (Georgetown University, 1997)

Target: Nicotinic acetylcholine receptor (Rattus leucopus, UniProt Q62594)
Sequence (Q62594 whole entry): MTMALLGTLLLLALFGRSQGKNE

For COc1cc2c3cc1Oc1cc(ccc1O)CC1c4c(cc(OC)c(O)c4Oc4ccc(cc4)CC3[N+](C)(C)CC2)CC[N+]1(C)C (stereo unspecified) [CAS_8063-06-7], the Ki was 3.79 µM.
